According to US9493539B2, “Peptides associated with HLA-DR MHC class II molecules involved in autoimmune diseases” (LONDON HEALTH SCIENCES CENTRE RESEARCH INC., priority 2003, dated 2016):
Square brackets hold non-standard residues; d marks the D form. Ends that are not written are not given here. Cit = NC(=O)NCCC[C@H](N)C(=O)O

Tests used:
[1] = test system: draining lymph node cells; assay: T cell proliferation recall response ([3H] thymidine) after peptide immunization of DR4-IE tg mice; format: cell-based, mouse; conditions: for T cell proliferative response: DR4-IE tg mice immunized with the peptide, 10 days later cells challenged in vitro with same peptide; for proliferative response in presence of anti-DR antibody: immunizing peptide plus anti-DR antibody
Protocol: (§1) DR4 tg mice were immunized intradermally at the interior side of both hind legs with 100 μl of peptide (1 μg/μl) emulsified in CFA (Difco Laboratories, Detroit, Mich.) in a 1:1 volume ratio. After 10 days, mice were sacrificed and their draining lymph nodes were removed for in vitro proliferation and cytokine assays.
(§2) Cell suspensions were prepared from the draining lymph nodes and cultured in 96-well plates at a concentration of 4×10^5 cells/well in the presence or absence of peptide antigen for 4 days. Anti-DR antibody (BD PharMingen, Mississauga, ON) was added to some cultures (1 μg/ml) to confirm DR restricted T cell responses as described previously (Andersson E C, Hansen B E, Jacobsen H, Madsen L S, Andersen C B, Engberg J, Rothbard J B, McDevitt G S, Malmstrom V, Holmdahl R, Svejgaard A, Fugger L. 1998. Definition of MHC and T cell receptor contacts in the HLA-DR4 restricted immunodominant epitope in type II collagen and characterization of collagen-induced arthritis in HLA-DR4 and human CD4 transgenic mice. Proc. Natl. Acad. Sci. USA. 95:7574). Culture supernatants were removed after 78 hrs to test IFN-γ production by ELISA (BD PharMingen, Mississauga, ON) as described previously (Hill, J. A., Wang, D., Jevnikar, A. M., Cairns, E., Bell, D. A. 2002. The relationship between predicted peptide-MHC class II affinity and T cell activation in a HLA-DRβ1*0401 MHC class II mouse model. Arthritis Res. 5:R40). Cytokine production was measured in duplicate and represents the average antigen specific cytokine production (cytokine production in control samples+2 SD were subtracted from the peptide specific cytokine production)±SD. Eighteen hours before culture termination, 1 μCi of [^3H] thymidine (ICN Biomedicals, Montreal, PQ) was added to each well to assess T cell proliferation. Proliferation experiments were conducted in triplicate and results are presented as average proliferation in cpm±SD or stimulation index (cpm of experimental sample/cpm of control sample)±SEM.

[2] = test system: draining lymph node cells; assay: IFN-γ production by ELISA after in vitro challenge with immunizing peptide; format: cell-based, mouse; conditions: DR4-IE tg mice immunized with the peptide
Protocol: as §1, §2

[3] = target: HLA-DRB1*0101 (Homo sapiens, UniProt P01903+P01911, A100R/D57E/F55L/F60I/F76Y/I96L/L162R/M171V/P40L/Q125E/R42F/V115G/Y59C); assay: Peptide-binding (competition) assay to purified MHC class II; conditions: DRB1*0101, shared epitope positive
Protocol: (§3) Peptide binding affinity to purified HLA-DRB1*0101, *0401, *0404, *0301, *0701, *0802, *1101, and *1302 molecules was determined relative to radio-labelled peptide probes as described previously (Southwood S, Sidney J, Kondo A, del Guercio M F, Appella E, Hoffman S, Kubo R T, Chesnut R W, Grey H M, Sette A. 1998. Several common HLA-DR types share largely overlapping peptide binding repertoires. J. Immunol. 160:3363). The nM concentration of unlabelled vimentin peptide necessary for 50% inhibition of the labelled peptide to the purified HLA-DRB1 molecules (IC50) was used as an approximation of the affinity of interaction ([…]). Results are expressed as the inverse of the IC50 values measured in nM.

[4] = target: HLA-DRB1*0401 (Homo sapiens, UniProt P01903+P01911, A100K/A169T/F76Y/I96L/K127E/L162R/M171V/N62H/P40V/Q125Y/R42H/S133A/S149N/S66Y/V115G/V209L/W38E); assay: as above; conditions: DRB1*0401, shared epitope positive
Protocol: as §3

[5] = target: HLA-DRB1*0404 (Homo sapiens, UniProt P01903+P01911, A100R/A169T/F76Y/I96L/K127E/L162R/M171V/N62H/P40V/Q125Y/R42H/S133A/S149N/S66Y/V209L/W38E); assay: as above; conditions: DRB1*0404, shared epitope positive
Protocol: as §3

[6] = test system: shared epitope negative (DRB1*0301, *0701, *0802, *1101, *1302); assay: as above; parameters: species or system human
Protocol: as §3

| Substance | T cell proliferative response [1] | proliferative response in presence of anti-DR antibody [1] | IFN-γ production [2] | activation of T cells primed by Vim R70Cit ([1]; Vim R70Cit immunized mice, challenged with the unmodified peptide, 10 μg/ml) | relative affinity for purified MHC [3] | relative affinity for purified MHC [4] | relative affinity for purified MHC [5] | relative affinity for purified MHC [6] | change of peptide affinity on conversion of arginine to citrulline ([6]; vs Vim 65-77) |
| --- | --- | --- | --- | --- | --- | --- | --- | --- | --- |
| AGWLADRSVRYPI (Human) [P4D, human aggrecan peptide 280-292] | strong proliferative response | inhibited | accompanied by IFN-γ production | – | – | – | – | – | – |
| AGWLACitRSVRYPI (AGWLA[Cit]RSVRYPI) [P4Cit, altered human aggrecan peptide 280-292] | induced | inhibited | induced | – | – | – | – | – | – |
| AGWLARRSVRYPI (Human) [P4R, altered human aggrecan peptide 280-292] | did not induce | – | did not induce | – | – | – | – | – | – |
| SAVRARSSVPGVR (Human) [Vim 65-77, human vimentin peptide 65-77, unmodified] | did not induce T cell activation | – | did not induce T cell activation | could not be activated | low to intermediate affinity | low to intermediate affinity | low to intermediate affinity | low to intermediate affinity | – |
| SAVRACitSSVPGVR (SAVRA[Cit]SSVPGVR) [Vim R70Cit, altered human vimentin peptide 65-77] | strong proliferative response | could also be inhibited | accompanied by IFN-γ production | – | strikingly high affinity | strikingly high affinity | strikingly high affinity | – | did not increase peptide affinity |
